Source: US20180186877A1 (NATIONAL CEREBRAL AND CARDIOVASCULAR CENTER, priority 2013, published 2018)

Assays:
[1] = system: human blood plasma; assay: Recalcification blood coagulation test with procyanidin; assay type: biochemical
Protocol: An anti-blood coagulation effect yielded by procyanidin was confirmed by the recalcification blood coagulation test. […] Thereafter, as in Example 8, human blood plasma and Ca2+ were added to the test tube, and the coagulation time was measured. Then, the coagulation time of the test tube to which no procyanidin was added, was also measured in a similar manner. Furthermore, the coagulation time of the test tube to which no recombinant LOX-1 protein was added, was also measured in a similar manner.

[2] = molecular target: binding of LOX-1 to oxidized LDL (Homo sapiens, UniProt P78380); details: Nishizuka et al. 2011; cited from earlier work

procyanidin
coagulation time ([1]; 1 μg/mL procyanidin added to blood plasma alone, no LOX-1): no influence | coagulation time ([1]; 1 μg/mL procyanidin with 1 μg/mL LOX-1 and blood plasma, significance less than 5%): reduction of the coagulation time was suppressed | inhibition of binding of LOX-1 to oxidized LDL [2]: inhibits
